Reference: publication PMC11434080, “Acetylation of Oleanolic Acid Dimers as a Method of Synthesis of Powerful Cytotoxic Agents” (Molecules, 2024)

Assays:
SKBR-3 = assay: MTT assay, SKBR-3; format: cell-based, human; settings: for SKBR-3 SI: Selectivity Index = IC50 HDF / IC50 SKBR-3; for IC50: SK-BR-3, MTT assay, SKBR-3 human breast adenocarcinoma, value (SD)
Protocol: (§1) The cytotoxic activity of oleanolic acid (mother compound, 1, Figure 2) and its 14 derivatives (3a–3n, Figure 2) was tested in vitro using the standard MTT method based on viability assay, e.g., [44] against carcinoma cell lines: SKBR-3, SKOV-3, PC-3, U-87, and one normal cell line: HDF.
(§2) Human cancer cells: SKBR-3 and SKOV-3 were cultured in McCoy’s Modified Medium; PC-3 was cultured in an F-12K medium; U-87 was cultured in EMEM medium; HDF was cultured in Fibroblast Basal Medium. Each medium was supplemented with 10% fetal bovine serum, 1% L- glutamine, and 1% penicillin/streptomycin solution. The cell lines were kept in an incubator at 37 °C. All the cell lines and mediums were obtained from the American Type Culture Collection (ATCC) supplied by LGC-Standards (Lomianki, Poland).
(§3) The MTT assay was conducted as described earlier, e.g., [44]. In short, this method is based on the reaction between mitochondria enzymes (dehydrogenases) of tested cell lines and 3-(4,5-dimethylthiazol-2-yl)-2,5-diphenyltetrazolium bromide (MTT). The final product of this reaction gives violet formazan crystals. The number of live cells is proportional to the amount of formazan and is represented by the violet dye reagent. The details of the experiments are given in [44].

SKOV-3 = assay: MTT assay, SKOV-3; format: cell-based, human; settings: for SKOV-3 SI: Selectivity Index = IC50 HDF / IC50 SKOV-3; for IC50: SK-OV-3, MTT assay, SKOV-3 human ovarian cystadenocarcinoma, value (SD)
Protocol: as §1, §2, §3

PC-3 = assay: MTT assay, PC-3; format: cell-based, human; settings: for IC50: MTT assay, PC-3 human prostate carcinoma, value (SD), read-out: B IC50 (SD); for B SI: Selectivity Index = IC50 HDF / IC50 of PC-3
Protocol: as §1, §2, §3

U-87 = assay: MTT assay, U-87; format: cell-based, human; settings: for U-87 SI: Selectivity Index = IC50 HDF / IC50 U-87; for IC50: U-87 MG, MTT assay, U-87 human glioblastoma, value (SD)
Protocol: as §1, §2, §3

HDF = assay: MTT assay, HDF normal cell line; format: cell-based; settings: Homo sapiens, value (SD)
Protocol: as §1, §2, §3

CUPRAC antioxidant assay = assay: CUPRAC antioxidant assay
From the text: (§4) The results of the antioxidant activity of oleanolic acid (1) and Acetylated Oleanolic Acid Dimers (AcOADs) 3a–3n evaluated with CUPRAC and DPPH assays are given in Figure 3. The results are presented as % inhibition of the copper(II) ions and Trolox equivalent (blue bars) calculated from the standard curve, presented in the Supplementary Materials (Supplementary Materials S02, Figure S1) and as % inhibition of the DPPH radical and Trolox equivalent (pink bars), calculated from the standard curve presented in the Supplementary Materials (Supplementary Materials S02, Figure S2).
(§5) The CUPRAC reagent (7.5 mM ethanolic 96% neocuproine solution, 10 mM CuCl2 × H2O solution, and an ammonium acetate buffer of pH 7.0) and DPPH reagent (2,2-diphenyl-1-picrylhydrazyl 0.2 mM solution) were applied.
(§6) The DPPH assay relies on the ability of an antioxidant to donate a hydrogen atom or an electron to the stable DPPH radical, resulting in its reduction and subsequent color change. In contrast, the CUPRAC method measures the reducing power of a sample by quantifying its ability to convert the Cu-neocuproine reagent complex into the Cu(I) form. The results are presented as % inhibition of the copper(II) ions and Trolox equivalent (blue bars) calculated from the standard curve (Supplementary Materails S02, Figure S1) and as % inhibition of the DPPH radical and Trolox equivalent (pink bars), calculated from the standard curve (Supplementary Materials S02, Figure S2). The details of the experiments are given in [46].

DPPH antioxidant assay = assay: DPPH antioxidant assay
From the text: as §4, §5, §6

[1] = test system: SKBR-3, SKOV-3, PC-3, and U-87 cancer cell lines; assay: MTT assay, four cancer cell lines taken together; format: cell-based, human; settings: for IC50: Homo sapiens, MTT, across SKBR-3, SKOV-3, PC-3, U-87; for Selectivity Index value: IC50 HDF / IC50 cancer cell line, across the four cancer lines
Protocol: as §1, §2, §3

Compound	SKBR-3 SI (SKBR-3)	SKOV-3 SI (SKOV-3)	IC50 (PC-3) [µM]	B SI (PC-3)	U-87 SI (U-87)	IC50 (U-87) [µM]	IC50 (HDF) [µM]	CUPRAC antioxidant activity (CUPRAC antioxidant assay) [Trolox equivalents]	DPPH antioxidant activity (DPPH antioxidant assay) [Trolox equivalents]	IC50 (SKBR-3) [µM]	IC50 (SKOV-3) [µM]	IC50 [1] [µM]	Selectivity Index value [1]	level of cytotoxic activity relative to oleanolic acid (1) ([1]; four cancer cell lines, times more active than oleanolic acid (1))	DPPH activity (in words) (DPPH antioxidant assay; Figure 3)	CUPRAC activity (in words) (CUPRAC antioxidant assay; Figure 3)
CC1(C)CC[C@]2(C(=O)O)CC[C@]3(C)C(=CC[C@@H]4[C@@]5(C)CC[C@H](O)C(C)(C)[C@@H]5CC[C@]43C)[C@@H]2C1 [Compound 1, oleanolic acid]	1.27	1.32	18.6	1.33	1.37	18.2	24.9	0.05474 ± 0.00171	0.01907 ± 0.0006506							
CC(=O)OC1CCC2(C)C(CCC3(C)C2CC=C2C4CC(C)(C)CCC4(C(=O)OCCCCCCOC(=O)C45CCC(C)(C)CC4C4=CCC6C7(C)CCC(OC(C)=O)C(C)(C)C7CCC6(C)C4(C)CC5)CCC23C)C1(C)C (stereo not shown) [Compound 3h]	1.30	1.45	5.13	1.33	1.47	4.65	6.85			5.25	4.72	4.65 to 7.06	higher than 1.00	approximately 3 times		
CC(=O)OC1CCC2(C)C(CCC3(C)C2CC=C2C4CC(C)(C)CCC4(C(=O)OCCCCCCCCOC(=O)C45CCC(C)(C)CC4C4=CCC6C7(C)CCC(OC(C)=O)C(C)(C)C7CCC6(C)C4(C)CC5)CCC23C)C1(C)C (stereo not shown) [Compound 3j]	2.31	2.28	2.72	2.32	2.32	2.76	6.4			2.77	2.81	2.5 to 4.5			higher antioxidant activity than OA	
CC(=O)OC1CCC2(C)C(CCC3(C)C2CC=C2C4CC(C)(C)CCC4(C(=O)OCCCCOC(=O)C45CCC(C)(C)CC4C4=CCC6C7(C)CCC(OC(C)=O)C(C)(C)C7CCC6(C)C4(C)CC5)CCC23C)C1(C)C (stereo not shown) [Compound 3d]	1.58	1.65	3.59	1.33	1.35	3.54	4.78			3.03	2.89	2.5 to 4.5	higher than 1.00			
CC(=O)OC1CCC2(C)C(CCC3(C)C2CC=C2C4CC(C)(C)CCC4(C(=O)OCC=CCOC(=O)C45CCC(C)(C)CC4C4=CCC6C7(C)CCC(OC(C)=O)C(C)(C)C7CCC6(C)C4(C)CC5)CCC23C)C1(C)C (stereo not shown) [Compound 3e]	2.17	2.26	3.35	1.99	1.91	3.48	6.66			3.07	2.95	2.5 to 4.5				highest CUPRAC activity
CC1(C)CCC2(C(=O)OCCCCCCCCCCCCOC(=O)C34CCC(C)(C)CC3C3=CCC5C6(C)CCC(O)C(C)(C)C6CCC5(C)C3(C)CC4)CCC3(C)C(=CCC4C5(C)CCC(O)C(C)(C)C5CCC43C)C2C1 (stereo not shown) [Compound 2n, reference compound]													higher than 1.00			
